Where two headings read alike, the source gives them in different places.
Legend:
[1] = test system: RSV-B (panel of 10 clinical strains); assay: In vitro susceptibility of RSV by plaque assay, RSV-B; type: cell-based; conditions: human respiratory syncytial virus
Procedure: Previous RSV challenge studies achieved antiviral efficacy with peripheral blood trough exposure levels over 3× the protein binding-adjusted in vitro EC90 ([12]). Based on the phase 1 PK data, this level of exposure was predicted to be achieved on or after the first dose in the majority of subjects with a 200-mg dose and to be met or exceeded on or after the first dose in all subjects with a 350-mg dose. The in vitro EC90 was determined using a panel of clinical isolates of RSV (Table S7).
EC50 range (nM) EC90 range (nM)
EC50 and EC 90 were determined by plaque assay.
EC50, 50% effective concentration; EC90, 90% effective concentration; RSV, respiratory

[2] = RSV human challenge study: plasma pharmacokinetics; type: in vivo; conditions: for half-life / Tmax / concentration at 12 h / Cmax / AUC(0-t): human; for concentration at 12 h: 12 hours post-dose, read-out: Mean Cmin (SD); for Cmax: read-out: Mean Cmax (SD); for AUC(0-t): read-out: Geometric mean (CV) AUC0–12h
Procedure: Twice-daily collection of nasal wash samples allowed measurement of viral load via RT-qPCR and quantitative culture. […] Subjects reported the occurrence and severity of symptoms three times daily using a 10-item subject symptom diary card as previously reported ([12]) (see Supplemental Methods). Throughout the quarantine period, used tissues were collected and weighed daily, and total nasal mucus weight was recorded. PK assessments were based on venous blood samples. Safety assessments included measurement of vital signs, standard 12-lead ECG recordings, spirometry, a complete physical examination, and a respiratory-directed physical examination. AEs were monitored daily, coded according to the Medical Dictionary for Regulatory Activities Version 20.0, and graded according to the National Cancer Institute Common Terminology Criteria for Adverse Events Version 4.0 (see Supplemental Methods for further details).
The safety analysis set comprised all subjects who received challenge virus; the PK analysis set comprised all subjects who received the challenge virus and provided at least one postdose PK result.
PK parameters were derived by noncompartmental analysis using Phoenix WinNonlin version 6.4.1. Statistical analyses were performed using SAS software version 9.4 or later. […]
Outcomes. Safety outcomes included the occurrence of AEs. PK outcomes included the maximum plasma concentration, the minimum plasma concentration, the time to maximum plasma concentration, and the area under the plasma concentration-time curve with a dosing interval, calculated by the linear trapezoidal rule.

NCc1ccc2c(c1)nc(CN1C(=O)C3(CC3)c3ccc(F)cc31)n2CCCC(F)(F)F [RV521]
EC50 ([1]; read-out: EC50 range): 0.4 to 1.4 nM
EC90 ([1]; read-out: EC90 range): 2 to 10.4 nM
Time to steady-state plasma levels after the first dose ([2]; 200 mg and 350 mg): ≤ 24 h
Subjects achieving target trough levels (3× protein-adjusted in vitro EC90) ([2]; 200 mg, after the first dose): 50%
Subjects achieving target trough levels (3× protein-adjusted in vitro EC90) ([2]; 200 mg, after the second dose): 73%
Subjects with trough levels in excess of the target (3× protein-adjusted in vitro EC90) ([2]; 350 mg, after the first dose): all subjects
Increase of systemic exposure with dose ([2]; dose 1 and dose 10, 200 mg vs 350 mg): greater than dose-proportional
half-life ([2]; in vivo, 200 mg and 350 mg, read-out: Elimination half-life (converted)): ~6 h
Tmax ([2]; plasma, oral, 200 mg and 350 mg, postdose, read-out: Median time to maximum plasma concentration): 5 to 6 h
concentration at 12 h ([2]; plasma, oral, 200 mg, dose 1): 22.6 ng/mL
Cmax ([2]; plasma, oral, 200 mg, dose 1, plasma): 55.3 ng/mL
AUC(0-t) ([2]; plasma, oral, 200 mg, dose 1): 255 ng·h/mL
Tmax ([2]; plasma, oral, 200 mg, dose 1, read-out: Median Tmax): 5.04 h
Cmax ([2]; plasma, oral, 200 mg, dose 10 (twice daily), plasma): 94.9 ng/mL
concentration at 12 h ([2]; plasma, oral, 200 mg, dose 10): 39.4 ng/mL
AUC(0-t) ([2]; plasma, oral, 200 mg, dose 10): 642 ng·h/mL
Tmax ([2]; plasma, oral, 200 mg, dose 10, read-out: Median Tmax): 5.06 h
concentration at 12 h ([2]; plasma, oral, 350 mg, dose 1): 80 ng/mL
Cmax ([2]; plasma, oral, 350 mg, dose 1, plasma): 169 ng/mL
AUC(0-t) ([2]; plasma, oral, 350 mg, dose 1): 953 ng·h/mL
Tmax ([2]; plasma, oral, 350 mg, dose 1, read-out: Median Tmax): 6 h
Cmax ([2]; plasma, oral, 350 mg, dose 10 (twice daily), plasma): 294 ng/mL
concentration at 12 h ([2]; plasma, oral, 350 mg, dose 10): 151 ng/mL
AUC(0-t) ([2]; plasma, oral, 350 mg, dose 10): 1900 ng·h/mL
Tmax ([2]; plasma, oral, 350 mg, dose 10, read-out: Median Tmax): 5.05 h
half-life ([2]; plasma, oral, 200 mg and 350 mg, read-out: Terminal half-life): 8.54 to 9.35 h

Source: article PMC6985722 (Antimicrobial Agents and Chemotherapy, 2020)
